Reference: US9695155B2, “Herbicidal substituted pyrimidinyloxy benzene compounds” (E. I. DU PONT DE NEMOURS AND COMPANY, priority 2013, dated 2017)

Legend:
[1] = tested on: chickweed; assay: Test D preemergence; format: in vivo, Stellaria media; details: Stellaria media, pre-emergence, scale 0-100, read-out: Plant response rating, Chickweed
Summary of the method: (§1)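 Plant response is a visual score from 0 (no effect) to 100 (complete control) relative to controls. Plants were kept in a controlled growth environment for 7 to 21 days after spraying. Preemergence treatments went onto silt loam soil; postemergence ones onto 1- to 4-leaf seedlings.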

[2] = tested on: galium; assay: Test D preemergence; format: in vivo, Galium aparine; details: Galium, pre-emergence, scale 0-100, read-out: Plant response rating, Galium
Summary of the method: as §1

[3] = tested on: Italian ryegrass; assay: Test D preemergence; format: in vivo, Lolium multiflorum; details: Lolium multiflorum, pre-emergence
Summary of the method: as §1

[4] = tested on: kochia; assay: Test D preemergence; format: in vivo, Kochia scoparia; details: Bassia scoparia, pre-emergence, scale 0-100, read-out: Plant response rating, Kochia
Summary of the method: as §1

[5] = tested on: pigweed; assay: Test D preemergence; format: in vivo, Amaranthus retroflexus; details: Amaranthus retroflexus, pre-emergence
Summary of the method: as §1

[6] = tested on: wild oat; assay: Test D preemergence; format: in vivo, Avena fatua; details: Avena fatua, pre-emergence, scale 0-100, read-out: Plant response rating, Oat, Wild
Summary of the method: as §1

[7] = tested on: wild radish; assay: Test D preemergence; format: in vivo, Raphanus raphanistrum; details: Raphanus raphanistrum, pre-emergence
Summary of the method: as §1

[8] = tested on: deadnettle; assay: Test D postemergence; format: in vivo, Lamium amplexicaule; details: Lamium amplexicaule, post-emergence, scale 0 to 100 (0 no effect, 100 complete control), read-out: Plant response rating, Deadnettle
Summary of the method: as §1

[9] = tested on: speedwell; assay: Test D postemergence; format: in vivo, Veronica persica; details: Veronica persica, post-emergence, scale 0 to 100 (0 no effect, 100 complete control), read-out: Plant response rating, Speedwell
Summary of the method: as §1

[10] = tested on: wild radish; assay: Test D postemergence; format: in vivo, Raphanus raphanistrum; details: Raphanus raphanistrum, post-emergence, scale 0 to 100 (0 no effect, 100 complete control), read-out: Plant response rating, Radish, Wild
Summary of the method: as §1

[11] = tested on: windgrass; assay: Test D postemergence; format: in vivo, Apera spica-venti; details: Apera spica-venti, post-emergence, scale 0 to 100 (0 no effect, 100 complete control), read-out: Plant response rating, Windgrass
Summary of the method: as §1

[12] = tested on: fall panicum; assay: Test E postemergence; format: in vivo, Panicum dichotomiflorum; details: Panicum dichotomiflorum, post-emergence, read-out: Plant response rating, Panicum, Fall
Summary of the method: (§2)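 Response was scored visually on a 0-100 scale (100 = complete control) versus controls after 14 to 21 days in the greenhouse. Test chemicals, formulated with surfactant in a non-phytotoxic solvent mixture, had been applied preemergence to seeds in silt loam soil or postemergence to 1- to 4-leaf plants in potting medium.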

[13] = tested on: dayflower; assay: Test E postemergence; format: in vivo, Commelina virginica; details: Commelina virginica, post-emergence, read-out: Plant response rating, Dayflower, VA
Summary of the method: as §2

[14] = tested on: field bindweed; assay: Test E postemergence; format: in vivo, Convolvulus arvensis; details: Convolvulus arvensis, post-emergence, read-out: Plant response rating, Field Bindweed
Summary of the method: as §2

[15] = Postemergence, 31 g ai/ha, scale 0 to 100
[16] = Postemergence, 62 g ai/ha, scale 0 to 100
[17] = Postemergence, 125 g ai/ha, scale 0 to 100
[18] = Postemergence, 250 g ai/ha, scale 0 to 100
[19] = postemergence, 16 g ai/ha, scale 0 to 100, 0 no effect, 100 complete control

N#Cc1cccc(Oc2ncc(Cl)cn2)c1-n1cc(C(F)(F)F)cn1 [Compound 58, 3-[(5-chloro-2-pyrimidinyl)oxy]-2-[4-(trifluoromethyl)-1H-pyrazol-1-yl]benzonitrile]
pest or weed control at 31 g/ha ([1]; 31 g ai/ha): 100%
pest or weed control at 62 g/ha ([1]; 62 g ai/ha): 100%
pest or weed control at 125 g/ha ([1]; 125 g ai/ha): 100%
pest or weed control at 250 g/ha ([1]; 250 g ai/ha): 100%
pest or weed control at 31 g/ha ([2]; 31 g ai/ha): 65%
pest or weed control at 62 g/ha ([2]; 62 g ai/ha): 100%
pest or weed control at 125 g/ha ([2]; 125 g ai/ha): 100%
pest or weed control at 250 g/ha ([2]; 250 g ai/ha): 100%
pest or weed control at 31 g/ha ([3]; 31 g ai/ha, scale 0 (no effect) to 100 (complete control), read-out: Plant response rating, Ryegrass, Italian): 10%
pest or weed control at 62 g/ha ([3]; 62 g ai/ha, scale 0-100, read-out: Plant response rating, Ryegrass, Italian): 35%
pest or weed control at 125 g/ha ([3]; 125 g ai/ha, scale 0-100, read-out: Plant response rating, Ryegrass, Italian): 100%
pest or weed control at 250 g/ha ([3]; 250 g ai/ha, scale 0-100, read-out: Plant response rating, Ryegrass, Italian): 100%
pest or weed control at 31 g/ha ([4]; 31 g ai/ha): 95%
pest or weed control at 62 g/ha ([4]; 62 g ai/ha): 95%
pest or weed control at 125 g/ha ([4]; 125 g ai/ha): 95%
pest or weed control at 250 g/ha ([4]; 250 g ai/ha): 95%
pest or weed control at 31 g/ha ([5]; 31 g ai/ha, scale 0 (no effect) to 100 (complete control), read-out: Plant response rating, Pigweed): 100%
pest or weed control at 62 g/ha ([5]; 62 g ai/ha, scale 0-100, read-out: Plant response rating, Pigweed): 100%
pest or weed control at 125 g/ha ([5]; 125 g ai/ha, scale 0-100, read-out: Plant response rating, Pigweed): 100%
pest or weed control at 250 g/ha ([5]; 250 g ai/ha, scale 0-100, read-out: Plant response rating, Pigweed): 100%
pest or weed control at 31 g/ha ([6]; 31 g ai/ha): 15%
pest or weed control at 62 g/ha ([6]; 62 g ai/ha): 25%
pest or weed control at 125 g/ha ([6]; 125 g ai/ha): 60%
pest or weed control at 250 g/ha ([6]; 250 g ai/ha): 100%
pest or weed control at 31 g/ha ([7]; 31 g ai/ha, scale 0 (no effect) to 100 (complete control), read-out: Plant response rating, Radish, Wild): 100%
pest or weed control at 62 g/ha ([7]; 62 g ai/ha, scale 0-100, read-out: Plant response rating, Radish, Wild): 100%
pest or weed control at 125 g/ha ([7]; 125 g ai/ha, scale 0-100, read-out: Plant response rating, Radish, Wild): 100%
pest or weed control at 250 g/ha ([7]; 250 g ai/ha, scale 0-100, read-out: Plant response rating, Radish, Wild): 100%
pest or weed control at 31 g/ha ([8]; 31 g ai/ha): 80%
pest or weed control at 62 g/ha ([8]; 62 g ai/ha): 100%
pest or weed control at 125 g/ha ([8]; 125 g ai/ha): 100%
pest or weed control at 250 g/ha ([8]; 250 g ai/ha): 100%
pest or weed control at 31 g/ha ([9]; 31 g ai/ha): 100%
pest or weed control at 62 g/ha ([9]; 62 g ai/ha): 100%
pest or weed control at 125 g/ha ([9]; 125 g ai/ha): 100%
pest or weed control at 250 g/ha ([9]; 250 g ai/ha): 100%
pest or weed control at 31 g/ha ([10]; 31 g ai/ha): 65%
pest or weed control at 62 g/ha ([10]; 62 g ai/ha): 70%
pest or weed control at 125 g/ha ([10]; 125 g ai/ha): 90%
pest or weed control at 250 g/ha ([10]; 250 g ai/ha): 95%
pest or weed control at 31 g/ha ([11]; 31 g ai/ha): 20%
pest or weed control at 62 g/ha ([11]; 62 g ai/ha): 35%
pest or weed control at 125 g/ha ([11]; 125 g ai/ha): 55%
pest or weed control at 250 g/ha ([11]; 250 g ai/ha): 90%
pest or weed control at 31 g/ha [12, 15]: 30%
pest or weed control at 62 g/ha [12, 16]: 40%
pest or weed control at 125 g/ha [12, 17]: 60%
pest or weed control at 250 g/ha [12, 18]: 60%
pest or weed control at 16 g/ha [12, 19]: 20%
pest or weed control at 31 g/ha [13, 15]: 60%
pest or weed control at 62 g/ha [13, 16]: 75%
pest or weed control at 125 g/ha [13, 17]: 90%
pest or weed control at 250 g/ha [13, 18]: 100%
pest or weed control at 16 g/ha [13, 19]: 50%
pest or weed control at 31 g/ha [14, 15]: 60%
pest or weed control at 62 g/ha [14, 16]: 70%
pest or weed control at 125 g/ha [14, 17]: 70%
pest or weed control at 250 g/ha [14, 18]: 80%
pest or weed control at 16 g/ha [14, 19]: 50%
